# Laboratory results: patent US7452865B2, “Antagonistic analogs of GH RH (2003)” (The Administrare's of the Tulane Educational Fund, priority 2004, dated 2008)
# Several values for one entry are separate records, joined by “and”; a condition that tells them apart may be missing. Identical values can stand only once. Square brackets hold non-standard residues; d marks the D form. Peptide text beside a SMILES is read from it. * marks the point of attachment. Phe(4-Cl) = N[C@@H](Cc1ccc(Cl)cc1)C(=O)O; hArg = N=C(N)NCCCC[C@H](N)C(=O)O; Nle = CCCC[C@H](N)C(=O)O; Abu = CC[C@H](N)C(=O)O; PhAc = O=C(Cc1ccccc1)*
# System: hGH-RH(1-29)NH2 induced GH release
# Experiment: Inhibition of GH release in superfused rat pituitary system
# Format: cell-based
# Settings: for endocrine antagonistic potency: inhibition of the GH release stimulated by hGH-RH(1-29)NH2 (in words): general statement, in vitro and in vivo
# Method: The analogs were tested in vitro in a test described earlier (S. Vigh and A. V Schally, Peptides 5:241-[…], 1984) with modification (Z. Rekasi and A. V. Schally, P.N.A.S. 90:2146-2149, 1993).
# Briefly, the cells are preincubated with peptides for 9 minutes (3 mL) at various concentrations. Immediately after the incubation, 1 nM hGH-RH(1-29)NH2 is administered for 3 minutes (1 mL) 10 minute response). To check the duration of the antagonistic effect of the analogue, 1 nM hGH-RH(1-29)NH2 is applied 30, 60, 90, and 120 minutes later for 3 minutes [30, 60, 90, 120 min responses]. Net integral values of the GH responses are evaluated. GH responses are compared to and expressed as percent of the original GH response induced by 1 nM GH-RH(1-29)NH2 The effect of the new antagonists are compared to that of [Ac-Tyr^1, D-Arg^2]hGH-RH(1-29)NH2, the “Standard antagonist”.
# Rat GH levels in aliquots of undiluted and diluted superfusion samples were measured by double-antibody radioimmunoassay using materials supplied by the National Hormone and Pituitary Program, Baltimore, Md. The results of RIA were analyzed with a computer program developed in our institute (V. Csernus and A. V. Schally, in Neuroendocrine Research Methods, Harwood Academic (Greenstein, B. D. ed., London, pp. 71-109, 1991), hereby incorporated by reference.
# [1] = antagonist 30 nM, 1 nM hGH-RH(1-29)NH2 at 0 min
# [2] = antagonist 30 nM, 1 nM hGH-RH(1-29)NH2 at 30 min
# [3] = antagonist 30 nM, 1 nM hGH-RH(1-29)NH2 at 60 min
# [4] = antagonist 30 nM, 1 nM hGH-RH(1-29)NH2 at 90 min
# [5] = antagonist 30 nM, 1 nM hGH-RH(1-29)NH2 at 120 min
Compound,GH response (% of control) 0 min [1],GH response (% of control) 30 min [2],GH response (% of control) 60 min [3],GH response (% of control) 90 min [4],GH response (% of control) 120 min [5],"GH response (% of control) 0 min (antagonist 10 nM, 0 min)","GH response (% of control) 30 min (antagonist 10 nM, 30 min)","GH response (% of control) 60 min (antagonist 10 nM, 60 min)","GH response (% of control) 90 min (antagonist 10 nM, 90 min)","GH response (% of control) 120 min (antagonist 10 nM, 120 min)",endocrine antagonistic potency: inhibition of the GH release stimulated by hGH-RH(1-29)NH2 (in words)
"[Hca-Tyr^1, D-Arg^2, Phe(pCl)^6, Har^9, Tyr(Me)^10, Abu^15, Nle^27, D-Arg^28, Agm^29]hGH-RH(1-29) [Peptide 51]",64 % of control and 52 % of control and 87 % of control,36 % of control and 43 % of control and 35 % of control,31 % of control and 57 % of control and 46 % of control,56 % of control and 51 % of control,58 % of control and 61 % of control,,,,,,
"[PhAc-Tyr^1, D-Arg^2, Phe(pCl)^6, Har^9, Tyr(Me)^10, Aib^15, Nle^27, D-Arg^28, Har^29]hGH-RH(1-29)NHEt [Peptide 49]",83 % of control,76 % of control,90 % of control,87 % of control,120 % of control,,,,,,
"[PhAc-Tyr^1, D-Arg^2, Phe(pCl)^5, Har^9, Tyr(Me)^10, Cit^11, Abu^15, Nle^27, D-Arg^28, Har^29]hGH-RH(1-29)NH2 [Peptide 65]",67 % of control,80 % of control,89 % of control,97 % of control,79 % of control,,,,,,
"[PhAc-Tyr^1, D-Arg^2, Phe(pCl)^6, Arg^9, Amp^10, Abu^15, Nle^27, D-Arg^28, Har^29]hGH-RH(1-29)NH2 [Peptide 30]",18 % of control,11 % of control,7 % of control,7 % of control,8 % of control,60 % of control,24 % of control,34 % of control,32 % of control,53 % of control,high endocrine antagonistic potencies
"[PhAc-D-Arg^0, D-Arg^2, Phe(pCl)^6, Arg^9, Abu^15, Nle^27, D-Arg^28, Har^29]hGH-RH(1-29)NH2 [Peptide 19]",62 % of control,64 % of control,66 % of control,82 % of control,74 % of control,,,,,,
"[PhAc-Tyr^1, D-Arg^2, Phe(pCl)^6, Cit^9, Abu^15, Nle^27, Har^28, D-Arg^29]hGH-RH(1-29)NH2 [Peptide 28]",68 % of control,7 % of control,8 % of control,20 % of control,34 % of control,,,,,,
"CCCC[C@H](NC(=O)[C@@H](NC(=O)[C@H](CC(=O)O)NC(=O)[C@H](CCC(N)=O)NC(=O)[C@H](CC(C)C)NC(=O)[C@H](CC(C)C)NC(=O)[C@H](CCCCN)NC(=O)[C@H](CCCNC(=N)N)NC(=O)[C@H](C)NC(=O)[C@H](CO)NC(=O)[C@H](CC(C)C)NC(=O)[C@H](CCC(N)=O)NC(=O)[C@H](CC)NC(=O)[C@H](CC(C)C)NC(=O)[C@@H](NC(=O)[C@H](CCCCN)NC(=O)[C@H](CCCNC(=N)N)NC(=O)[C@H](Cc1ccc(O)cc1)NC(=O)[C@H](CCCNC(=N)N)NC(=O)[C@H](CC(N)=O)NC(=O)[C@@H](NC(=O)[C@H](Cc1ccc(Cl)cc1)NC(=O)[C@@H](NC(=O)[C@H](C)NC(=O)[C@H](CC(=O)O)NC(=O)[C@@H](CCCNC(=N)N)NC(=O)[C@H](Cc1ccc(O)cc1)NC(=O)Cc1ccccc1)[C@@H](C)CC)[C@@H](C)O)C(C)C)[C@@H](C)CC)C(=O)N[C@H](CCCNC(=N)N)C(=O)N[C@@H](CCCCNC(=N)N)C(N)=O [JV-1-36, reference compound] (PhAc-Y[dR]DAI[Phe(4-Cl)]TNRYRKVL[Abu]QLSARKLLQDI[Nle][dR][hArg]-NH2; N-terminus and C-terminus assumed)",36 % of control,21 % of control,25 % of control,29 % of control,29 % of control,80 % of control,42 % of control,60 % of control,64 % of control,85 % of control,
"[PhAc-Tyr^1, D-Arg^2, Phe(pCl)^6, Cit^8, Arg^9, Abu^15, Nle^27, D-Arg^28, Har^29]hGH-RH(1-29)NH2 [Peptide 21]",0 % of control,13 % of control,33 % of control,43 % of control,37 % of control,,,,,,high endocrine antagonistic potencies
"[Hca-Tyr^1, D-Arg^2, Phe(pCl)^6, Har^9, Tyr(Me)^10, Abu^15, Nle^27, D-Arg^28, Har^29, Har^30]hGH-RH(1-30)NHEt [Peptide 56]",76 % of control,83 % of control,92 % of control,80 % of control,68 % of control,,,,,,
"[PhAc-Tyr^1, D-Arg^2, Phe(pCl)^6, Arg^9, Cha^10, Abu^15, Nle^27, D-Arg^28, Har^29]hGH-RH(1-29)NH2 [Peptide 33]",97 % of control,89 % of control,78 % of control,97 % of control,82 % of control,,,,,,
"[Hca-Tyr^1, D-Arg^2, Phe(pCl)^6, Har^9, Tyr(Me)^10, Abu^15, Nle^27, D-Arg^28, Har^29, D-Arg^30]hGH-RH(1-29)NH2 [Peptide 58]",78 % of control and 94 % of control and 64 % of control,53 % of control and 41 % of control,56 % of control and 57 % of control and 59 % of control,47 % of control and 64 % of control and 50 % of control,64 % of control and 69 % of control,,,,,,
"[HOOC(CH2)10CO-Tyr^1, D-Arg^2, Phe(pCl)^6, Arg^9, Abu^15, Nle^27, D-Arg^28, Har^29]hGH-RH(1-29)NH2 [Peptide 9]",47 % of control,43 % of control,66 % of control,63 % of control,58 % of control,,,,,,
"[PhAc-Tyr^1, D-Arg^2, Phe(pCl)^6, Amp^9, Abu^15, Nle^27, D-Arg^28, Har^29]hGH-RH(1-29)NH2 [Peptide 68]",37 % of control,22 % of control,33 % of control,29 % of control,33 % of control,,,,,,
"[PhAc-Tyr^1, D-Arg^2, Phe(pCl)^6, Arg^9, Abu^15, Nle^27, D-Arg^28, Har^29]hGH-RH(1-29)NHEt [Peptide 48]",22 % of control,21 % of control,44 % of control,44 % of control,47 % of control,,,,,,
"[CH3(CH2)12CO-Tyr^1, D-Arg^2, Phe(pCl)^6, Arg^9, Abu^15, Nle^27, D-Arg^28, Har^29]hGH-RH(1-29)NH2 [Peptide 10]",60 % of control,30 % of control,36 % of control,37 % of control,44 % of control,,,,,,
"[CH3(CH2)14COD-Phe^0, D-Arg^2, Phe(pCl)^6, Arg^9, Abu^15, Nle^27, D-Arg^28, Har^29]hGH-RH(1-29)NH2 [Peptide 17]",29 % of control,51 % of control,68 % of control,73 % of control,61 % of control,,,,,,
"[PhAc-Tyr^1, D-Arg^2, Phe(pCl)^6, Har^9, Tyr(Me)^10, Orn^12, Abu^15, Nle^27, D-Arg^28, Har^29]hGH-RH(1-29)NHEt [Peptide 50]",57 % of control,65 % of control,69 % of control,74 % of control,67 % of control,,,,,,
